The record followed here is publication PMC3192407, “Both Basic and Acidic Amino Acid Residues of IpTxa Are Involved in Triggering Substate of RyR1” (Journal of Biomedicine and Biotechnology, 2011).

Structures are written as SMILES. Bridge positions count the residues as written; N and C are the ends. Peptide text beside a SMILES is read from it.

The target of this assay is T1, rabbit skeletal RyR1 (native RyR1 in HSR) (Oryctolagus cuniculus, UniProt P11716).
T1 construct: tested using native RyR1 in rabbit skeletal HSR; from tissue; host or cells: rabbit fast-twitch back and leg muscles (heavy SR vesicles)
T1 sequence (P11716 whole entry): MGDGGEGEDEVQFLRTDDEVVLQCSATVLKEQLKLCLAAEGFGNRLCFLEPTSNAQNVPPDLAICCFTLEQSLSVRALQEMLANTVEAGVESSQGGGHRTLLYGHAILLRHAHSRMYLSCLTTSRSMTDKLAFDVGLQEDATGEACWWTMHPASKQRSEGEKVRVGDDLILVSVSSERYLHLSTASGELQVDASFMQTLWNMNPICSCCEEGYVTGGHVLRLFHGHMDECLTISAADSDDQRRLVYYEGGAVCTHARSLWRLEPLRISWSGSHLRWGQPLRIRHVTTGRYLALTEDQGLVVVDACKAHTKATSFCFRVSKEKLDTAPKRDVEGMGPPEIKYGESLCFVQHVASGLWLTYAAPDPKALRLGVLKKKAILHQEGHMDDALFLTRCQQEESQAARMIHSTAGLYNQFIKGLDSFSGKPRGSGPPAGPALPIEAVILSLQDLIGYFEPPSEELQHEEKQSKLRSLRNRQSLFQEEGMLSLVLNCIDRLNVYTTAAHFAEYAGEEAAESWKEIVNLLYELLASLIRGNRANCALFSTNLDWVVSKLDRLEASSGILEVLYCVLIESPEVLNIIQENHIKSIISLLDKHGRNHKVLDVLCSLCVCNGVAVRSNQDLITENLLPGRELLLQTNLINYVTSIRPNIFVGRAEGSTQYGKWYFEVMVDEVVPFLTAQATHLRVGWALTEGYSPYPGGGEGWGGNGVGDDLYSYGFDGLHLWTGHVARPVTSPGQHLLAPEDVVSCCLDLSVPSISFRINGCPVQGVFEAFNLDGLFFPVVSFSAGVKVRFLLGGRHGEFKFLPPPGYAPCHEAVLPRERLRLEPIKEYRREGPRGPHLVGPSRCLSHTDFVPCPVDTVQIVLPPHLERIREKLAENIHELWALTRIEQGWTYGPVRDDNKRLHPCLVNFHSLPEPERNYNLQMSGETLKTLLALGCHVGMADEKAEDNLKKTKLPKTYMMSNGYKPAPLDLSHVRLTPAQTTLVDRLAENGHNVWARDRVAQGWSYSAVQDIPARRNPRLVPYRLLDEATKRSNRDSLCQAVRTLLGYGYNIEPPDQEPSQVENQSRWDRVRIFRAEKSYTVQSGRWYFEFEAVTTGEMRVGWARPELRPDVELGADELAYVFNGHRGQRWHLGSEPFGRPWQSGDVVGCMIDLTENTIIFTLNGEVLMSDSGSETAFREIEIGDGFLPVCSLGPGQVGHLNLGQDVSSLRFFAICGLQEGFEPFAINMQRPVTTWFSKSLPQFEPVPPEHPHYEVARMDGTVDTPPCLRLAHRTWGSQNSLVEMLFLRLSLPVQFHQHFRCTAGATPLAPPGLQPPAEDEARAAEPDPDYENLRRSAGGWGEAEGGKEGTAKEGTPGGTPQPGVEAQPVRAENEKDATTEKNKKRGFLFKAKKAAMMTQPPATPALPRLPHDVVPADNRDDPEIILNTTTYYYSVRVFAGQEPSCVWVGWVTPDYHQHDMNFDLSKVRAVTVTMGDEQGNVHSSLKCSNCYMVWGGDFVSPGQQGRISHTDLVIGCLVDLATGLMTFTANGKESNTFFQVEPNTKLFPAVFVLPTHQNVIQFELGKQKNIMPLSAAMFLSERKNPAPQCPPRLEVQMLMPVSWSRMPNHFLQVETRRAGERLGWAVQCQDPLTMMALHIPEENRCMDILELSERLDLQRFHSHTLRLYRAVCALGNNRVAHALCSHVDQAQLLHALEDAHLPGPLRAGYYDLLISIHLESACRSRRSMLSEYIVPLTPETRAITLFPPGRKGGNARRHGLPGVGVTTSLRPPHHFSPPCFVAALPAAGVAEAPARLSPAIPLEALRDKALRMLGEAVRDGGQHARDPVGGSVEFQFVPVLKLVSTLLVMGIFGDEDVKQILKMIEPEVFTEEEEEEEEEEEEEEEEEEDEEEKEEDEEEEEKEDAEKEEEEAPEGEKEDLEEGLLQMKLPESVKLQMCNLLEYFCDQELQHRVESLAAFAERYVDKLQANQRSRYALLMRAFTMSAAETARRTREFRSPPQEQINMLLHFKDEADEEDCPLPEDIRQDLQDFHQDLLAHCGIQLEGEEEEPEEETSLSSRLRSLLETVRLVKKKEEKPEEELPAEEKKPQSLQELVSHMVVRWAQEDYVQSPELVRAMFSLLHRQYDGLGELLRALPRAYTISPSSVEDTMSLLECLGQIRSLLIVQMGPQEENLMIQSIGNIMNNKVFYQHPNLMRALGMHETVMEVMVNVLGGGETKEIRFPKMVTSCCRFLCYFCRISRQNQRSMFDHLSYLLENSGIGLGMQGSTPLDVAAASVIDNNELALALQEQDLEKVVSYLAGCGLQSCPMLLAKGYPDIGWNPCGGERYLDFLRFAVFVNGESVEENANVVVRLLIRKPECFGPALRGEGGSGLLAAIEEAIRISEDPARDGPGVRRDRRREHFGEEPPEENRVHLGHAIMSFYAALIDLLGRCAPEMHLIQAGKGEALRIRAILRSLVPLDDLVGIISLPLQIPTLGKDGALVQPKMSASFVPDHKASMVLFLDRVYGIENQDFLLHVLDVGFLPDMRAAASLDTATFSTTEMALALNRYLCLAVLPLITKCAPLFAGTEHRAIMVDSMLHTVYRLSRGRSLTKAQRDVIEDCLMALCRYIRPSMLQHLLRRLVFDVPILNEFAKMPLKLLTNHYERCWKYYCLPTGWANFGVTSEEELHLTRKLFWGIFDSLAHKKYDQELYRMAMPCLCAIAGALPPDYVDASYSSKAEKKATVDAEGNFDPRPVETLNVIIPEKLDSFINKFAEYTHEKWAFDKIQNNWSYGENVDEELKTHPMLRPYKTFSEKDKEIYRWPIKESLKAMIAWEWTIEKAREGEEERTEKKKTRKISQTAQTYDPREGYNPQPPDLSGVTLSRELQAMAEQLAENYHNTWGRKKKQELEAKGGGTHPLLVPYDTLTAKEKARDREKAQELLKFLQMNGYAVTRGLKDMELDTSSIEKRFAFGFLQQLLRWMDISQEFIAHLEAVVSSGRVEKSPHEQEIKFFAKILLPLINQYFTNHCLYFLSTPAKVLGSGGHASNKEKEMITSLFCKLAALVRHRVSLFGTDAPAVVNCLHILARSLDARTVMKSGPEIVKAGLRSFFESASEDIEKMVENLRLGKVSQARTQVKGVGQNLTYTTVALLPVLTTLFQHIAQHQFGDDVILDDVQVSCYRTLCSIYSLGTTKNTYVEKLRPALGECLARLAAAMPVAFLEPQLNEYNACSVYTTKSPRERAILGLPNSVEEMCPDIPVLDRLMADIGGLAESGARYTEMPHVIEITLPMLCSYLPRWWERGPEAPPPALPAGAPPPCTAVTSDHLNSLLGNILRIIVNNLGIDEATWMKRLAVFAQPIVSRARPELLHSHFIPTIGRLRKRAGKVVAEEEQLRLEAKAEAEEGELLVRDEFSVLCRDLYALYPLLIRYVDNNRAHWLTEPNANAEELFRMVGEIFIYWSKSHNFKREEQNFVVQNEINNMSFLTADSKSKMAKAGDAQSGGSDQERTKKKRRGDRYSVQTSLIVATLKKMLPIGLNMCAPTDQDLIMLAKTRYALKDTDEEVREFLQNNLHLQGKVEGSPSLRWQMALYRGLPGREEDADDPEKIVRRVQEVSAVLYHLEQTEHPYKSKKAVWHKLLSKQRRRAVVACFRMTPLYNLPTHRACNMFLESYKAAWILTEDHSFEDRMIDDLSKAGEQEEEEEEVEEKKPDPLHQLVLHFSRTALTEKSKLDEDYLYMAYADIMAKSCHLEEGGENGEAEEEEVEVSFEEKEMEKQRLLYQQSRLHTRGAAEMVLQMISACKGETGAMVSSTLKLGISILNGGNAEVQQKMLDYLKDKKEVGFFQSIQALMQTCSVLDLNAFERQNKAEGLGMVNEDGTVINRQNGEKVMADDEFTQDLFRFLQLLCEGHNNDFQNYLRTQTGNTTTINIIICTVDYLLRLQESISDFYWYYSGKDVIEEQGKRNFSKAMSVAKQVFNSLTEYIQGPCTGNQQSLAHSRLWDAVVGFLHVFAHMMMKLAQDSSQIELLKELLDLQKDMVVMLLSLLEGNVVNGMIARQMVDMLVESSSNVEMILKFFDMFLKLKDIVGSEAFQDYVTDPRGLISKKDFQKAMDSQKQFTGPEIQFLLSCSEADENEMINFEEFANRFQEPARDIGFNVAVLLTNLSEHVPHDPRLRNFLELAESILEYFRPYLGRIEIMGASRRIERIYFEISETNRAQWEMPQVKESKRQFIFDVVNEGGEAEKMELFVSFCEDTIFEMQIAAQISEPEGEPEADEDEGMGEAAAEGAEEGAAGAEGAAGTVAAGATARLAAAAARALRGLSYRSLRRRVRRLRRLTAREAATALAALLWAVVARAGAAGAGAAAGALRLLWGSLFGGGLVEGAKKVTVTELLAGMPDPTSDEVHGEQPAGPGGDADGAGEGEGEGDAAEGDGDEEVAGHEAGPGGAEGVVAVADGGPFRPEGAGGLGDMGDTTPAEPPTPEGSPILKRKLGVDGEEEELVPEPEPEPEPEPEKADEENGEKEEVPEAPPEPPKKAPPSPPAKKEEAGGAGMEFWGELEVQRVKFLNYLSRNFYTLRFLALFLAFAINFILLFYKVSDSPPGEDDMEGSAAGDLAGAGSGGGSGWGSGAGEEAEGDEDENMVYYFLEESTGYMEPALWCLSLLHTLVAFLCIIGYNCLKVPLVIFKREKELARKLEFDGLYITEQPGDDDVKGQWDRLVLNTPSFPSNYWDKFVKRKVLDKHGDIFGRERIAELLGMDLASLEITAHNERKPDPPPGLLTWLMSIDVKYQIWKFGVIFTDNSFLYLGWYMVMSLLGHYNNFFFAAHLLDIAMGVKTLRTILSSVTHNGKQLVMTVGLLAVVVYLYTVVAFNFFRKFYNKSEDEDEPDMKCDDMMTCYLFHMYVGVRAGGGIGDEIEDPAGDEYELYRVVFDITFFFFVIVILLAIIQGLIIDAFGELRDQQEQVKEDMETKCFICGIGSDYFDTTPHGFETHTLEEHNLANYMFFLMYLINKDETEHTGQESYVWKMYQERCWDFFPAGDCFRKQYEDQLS
The experiment in a line: Planar lipid bilayer single-channel recording, native RyR1 in HSR. It counts as biochemical. As to conditions: native RyR1 in SR, toxin cis, 6-100 nM, -30 mV, [Ca^2+]free 10 μM, pH 7.2, Hill fit, means ± SE of 3–9 experiments; read-out: EC50 for Psubstate. As to the method: A heavy fraction of fragmented SR vesicles (HSR) containing junctional SR was prepared from rabbit fast-twitch back and leg muscles as described previously.
Single-channel recordings of rabbit skeletal RyR1 incorporated into planar lipid bilayers were carried out as described previously. Lipid bilayers, consisting of brain tissue phosphatidylethanolamine and phosphatidylserine (1 : 1) in decane (20 mg/mL) were formed across a hole of approximately 200 μm diameter. Thinning of the bilayer was monitored by bilayer capacitance. The basic composition of the cis/trans solution consisted of 300 mM cesium methanesulfonate, 10 mM Tris/Hepes (pH 7.2), 2 mM EGTA, and 1.998 mM CaCl2 ([Ca^2+]free = 10 μM). [Ca^2+]free was calculated using the “Chelator” program (Theo Schoenmaker). Cs^+ was selected as the charge carrier to ensure precise control of free [Ca^2+], to increase the channel conductance, and to avoid any contribution from potassium channels present in the SR membrane. Chloride channels were inhibited by using the impermeant anion methanesulfonate. Incorporation of ion channels was carried out as described by Miller and Racker and confirmed by recording the characteristically high single-channel conductance of RyRs. The trans side was maintained at ground and the cis side was clamped at −30 mV relative to the ground. After addition of the IpTxa to the cis chamber, the single channel data were collected at −30 mV for 2–5 min. […] Recordings were filtered with an 8-pole low-pass Bessel filter at 1 kHz and digitalized through a Digidata 1200 series interface (Axon Instruments). Data acquisition and analysis were done with the Axon Instruments software, pClamp v7.0.
Data were analyzed using the Hill equation described previously:
(1) Psubstate=(Psubstate, max )/[1+(EC50/[IpTxa])^nH] orPo=(Po, max )/[1+(EC50/[IpTxa])^nH], where (Po, max ) is the Po observed at saturating concentrations of IpTxa, EC50 is the IpTxa concentration for which 50% of Po, max is obtained and nH is the Hill coefficient. Also, Psubstate, max is the Psubstate observed at saturating concentrations of IpTxa, EC50 is the IpTxa concentration for which 50% of Psubstate, max is obtained, and nH is the Hill coefficient. The probability of full open state of the channel (Po) was defined as the ratio of the time spent in the open state to the total time exclusive of time spent in the substate. The probability to obtain substate (Psubstate) was calculated as the time spent in the substate divided by a given total recording time. The durations of the substate were obtained by manual positioning of the cursors and constructing all point histograms. Mean duration of substate was measured by total substate time divided by total substate frequencies.
Results are given as means ± SE. Significant differences were analyzed using Student's t-test. Differences were considered to be significant when P < 0.05. The fitting of the data to the graphs were carried out using the software, Origin v7.
To examine how IpTxa modifies RyR1 activity, RyR1 in HSR incorporated in planar lipid bilayers was tested in the presence or absence of synthetic wild-type IpTxa. The chamber solutions for both cis (cytosolic) and trans (luminal) sides included 300 mM cesium methanesulfonate and 10 mM Tris-Hepes (pH 7.2). 10 μM free Ca^2+ was added to the cis side to activate the incorporated RyR1. After an addition of IpTxa to the cis chamber, the single channel gating properties were recorded at a holding potential of −30 mV for over 2 min at each toxin concentration. […] To examine the effects of IpTxa on full open state, we calculated the probability to obtain the full open state (Po) as the time spent in the open state divided by the total time exclusive of the time spent in the substate. The time for recorded Po was in the range of 30 s–2 min. […] The steady-state Po was 0.18 ± 0.02 at 10 μM Ca^2+. […]
For orientation: EC50 means the concentration that produces a half-maximal response. Regarding `CC(C)C[C@@H]1NC(=O)[C@H](Cc2c[nH]cn2)NC(=O)[C@@H]2CCCN2C(=O)[C@H](CC(C)C)NC(=O)[C@@H](NC(=O)[C@H](C)NC(=O)CN)CSSC[C@@H]2NC(=O)[C@@H]3CSSC[C@@H](C(=O)N[C@@H](CCCNC(=N)N)C(=O)O)NC(=O)[C@H](CCCNC(=N)N)NC(=O)[C@H](CCCCN)NC(=O)[C@H](CCC(=O)O)NC(=O)[C@H](C)NC(=O)[C@H](CC(N)=O)NC(=O)[C@H]([C@@H](C)O)NC(=O)CNC(=O)[C@H](CCCNC(=N)N)NC(=O)[C@H](CCCNC(=N)N)NC(=O)[C@H](CCCCN)NC(=O)[C@H](CSSC[C@H](NC(=O)[C@H](CCCNC(=N)N)NC(=O)[C@H](CCCCN)NC1=O)C(=O)N[C@@H](CCCCN)C(=O)N[C@@H](C)C(=O)N[C@@H](CC(=O)O)C(=O)N[C@@H](CC(N)=O)C(=O)N[C@@H](CC(=O)O)C(=O)N3)NC(=O)[C@H](CCCCN)NC(=O)[C@H](CCCCN)NC(=O)CNC2=O` [D2A] (H-GACLPHLKRCKADNDCCGKKCKRRGTNAEKRCR-OH; disulfide 3-17, 10-21, 16-32), the EC50 worked out at 0.0286 ± 0.014 µM. The value for `CC(C)C[C@@H]1NC(=O)[C@H](Cc2c[nH]cn2)NC(=O)[C@@H]2CCCN2C(=O)[C@H](CC(C)C)NC(=O)[C@@H](NC(=O)[C@H](CC(=O)O)NC(=O)CN)CSSC[C@@H]2NC(=O)[C@@H]3CSSC[C@@H](C(=O)N[C@@H](CCCNC(=N)N)C(=O)O)NC(=O)[C@H](CCCNC(=N)N)NC(=O)[C@H](CCCCN)NC(=O)[C@H](CCC(=O)O)NC(=O)[C@H](C)NC(=O)[C@H](CC(N)=O)NC(=O)[C@H]([C@@H](C)O)NC(=O)CNC(=O)[C@H](CCCNC(=N)N)NC(=O)[C@H](CCCNC(=N)N)NC(=O)[C@H](CCCCN)NC(=O)[C@H](CSSC[C@H](NC(=O)[C@H](CCCNC(=N)N)NC(=O)[C@H](CCCCN)NC1=O)C(=O)N[C@@H](CCCCN)C(=O)N[C@@H](C)C(=O)N[C@@H](C)C(=O)N[C@@H](CC(N)=O)C(=O)N[C@@H](CC(=O)O)C(=O)N3)NC(=O)[C@H](CCCCN)NC(=O)[C@H](CCCCN)NC(=O)CNC2=O` [D13A] (H-GDCLPHLKRCKAANDCCGKKCKRRGTNAEKRCR-OH; disulfide 3-17, 10-21, 16-32) was 0.0217 ± 0.00792 µM; that for `CC(C)C[C@@H]1NC(=O)[C@H](Cc2c[nH]cn2)NC(=O)[C@@H]2CCCN2C(=O)[C@H](CC(C)C)NC(=O)[C@@H](NC(=O)[C@H](CC(=O)O)NC(=O)CN)CSSC[C@@H]2NC(=O)[C@@H]3CSSC[C@@H](C(=O)N[C@@H](CCCNC(=N)N)C(=O)O)NC(=O)[C@H](CCCNC(=N)N)NC(=O)[C@H](CCCCN)NC(=O)[C@H](CCC(=O)O)NC(=O)[C@H](C)NC(=O)[C@H](CC(N)=O)NC(=O)[C@H]([C@@H](C)O)NC(=O)CNC(=O)[C@H](CCCNC(=N)N)NC(=O)[C@H](CCCNC(=N)N)NC(=O)[C@H](CCCCN)NC(=O)[C@H](CSSC[C@H](NC(=O)[C@H](CCCNC(=N)N)NC(=O)[C@H](CCCCN)NC1=O)C(=O)N[C@@H](CCCCN)C(=O)N[C@@H](C)C(=O)N[C@@H](CC(=O)O)C(=O)N[C@@H](CC(N)=O)C(=O)N[C@@H](C)C(=O)N3)NC(=O)[C@H](CCCCN)NC(=O)[C@H](CCCCN)NC(=O)CNC2=O` [D15A] (H-GDCLPHLKRCKADNACCGKKCKRRGTNAEKRCR-OH; disulfide 3-17, 10-21, 16-32) was 0.0215 ± 0.00192 µM.

With `CC(C)C[C@@H]1NC(=O)[C@H](Cc2c[nH]cn2)NC(=O)[C@@H]2CCCN2C(=O)[C@H](CC(C)C)NC(=O)[C@@H](NC(=O)[C@H](CC(=O)O)NC(=O)CN)CSSC[C@@H]2NC(=O)[C@@H]3CSSC[C@@H](C(=O)N[C@@H](CCCNC(=N)N)C(=O)O)NC(=O)[C@H](CCCNC(=N)N)NC(=O)[C@H](CCCCN)NC(=O)[C@H](C)NC(=O)[C@H](C)NC(=O)[C@H](CC(N)=O)NC(=O)[C@H]([C@@H](C)O)NC(=O)CNC(=O)[C@H](CCCNC(=N)N)NC(=O)[C@H](CCCNC(=N)N)NC(=O)[C@H](CCCCN)NC(=O)[C@H](CSSC[C@H](NC(=O)[C@H](CCCNC(=N)N)NC(=O)[C@H](CCCCN)NC1=O)C(=O)N[C@@H](CCCCN)C(=O)N[C@@H](C)C(=O)N[C@@H](CC(=O)O)C(=O)N[C@@H](CC(N)=O)C(=O)N[C@@H](CC(=O)O)C(=O)N3)NC(=O)[C@H](CCCCN)NC(=O)[C@H](CCCCN)NC(=O)CNC2=O` [E29A] (H-GDCLPHLKRCKADNDCCGKKCKRRGTNAAKRCR-OH; disulfide 3-17, 10-21, 16-32), the EC50 is 0.00607 ± 0.00428 µM.

For `CC(C)C[C@@H]1NC(=O)[C@H](Cc2c[nH]cn2)NC(=O)[C@@H]2CCCN2C(=O)[C@H](CC(C)C)NC(=O)[C@@H](NC(=O)[C@H](CC(=O)O)NC(=O)CN)CSSC[C@@H]2NC(=O)[C@@H]3CSSC[C@@H](C(=O)N[C@@H](CCCNC(=N)N)C(=O)O)NC(=O)[C@H](CCCNC(=N)N)NC(=O)[C@H](CCCCN)NC(=O)[C@H](CCC(=O)O)NC(=O)[C@H](C)NC(=O)[C@H](CC(N)=O)NC(=O)[C@H]([C@@H](C)O)NC(=O)CNC(=O)[C@H](CCCNC(=N)N)NC(=O)[C@H](CCCNC(=N)N)NC(=O)[C@H](CCCCN)NC(=O)[C@H](CSSC[C@H](NC(=O)[C@H](CCCNC(=N)N)NC(=O)[C@H](CCCCN)NC1=O)C(=O)N[C@@H](C)C(=O)N[C@@H](C)C(=O)N[C@@H](CC(=O)O)C(=O)N[C@@H](CC(N)=O)C(=O)N[C@@H](CC(=O)O)C(=O)N3)NC(=O)[C@H](CCCCN)NC(=O)[C@H](CCCCN)NC(=O)CNC2=O` [K11A] (H-GDCLPHLKRCAADNDCCGKKCKRRGTNAEKRCR-OH; disulfide 3-17, 10-21, 16-32), the 50% effective concentration (EC50) came out at 0.0218 ± 0.00349 µM. Regarding `CC(C)C[C@@H]1NC(=O)[C@H](Cc2c[nH]cn2)NC(=O)[C@@H]2CCCN2C(=O)[C@H](CC(C)C)NC(=O)[C@@H](NC(=O)[C@H](CC(=O)O)NC(=O)CN)CSSC[C@@H]2NC(=O)[C@@H]3CSSC[C@@H](C(=O)N[C@@H](CCCNC(=N)N)C(=O)O)NC(=O)[C@H](CCCNC(=N)N)NC(=O)[C@H](CCCCN)NC(=O)[C@H](CCC(=O)O)NC(=O)[C@H](C)NC(=O)[C@H](CC(N)=O)NC(=O)[C@H]([C@@H](C)O)NC(=O)CNC(=O)[C@H](CCCNC(=N)N)NC(=O)[C@H](CCCNC(=N)N)NC(=O)[C@H](CCCCN)NC(=O)[C@H](CSSC[C@H](NC(=O)[C@H](CCCNC(=N)N)NC(=O)[C@H](CCCCN)NC1=O)C(=O)N[C@@H](CCCCN)C(=O)N[C@@H](C)C(=O)N[C@@H](CC(=O)O)C(=O)N[C@@H](CC(N)=O)C(=O)N[C@@H](CC(=O)O)C(=O)N3)NC(=O)[C@H](CCCCN)NC(=O)[C@H](C)NC(=O)CNC2=O` [K19A] (H-GDCLPHLKRCKADNDCCGAKCKRRGTNAEKRCR-OH; disulfide 3-17, 10-21, 16-32), the concentration for a half-maximal effect (EC50) was 0.0218 ± 0.00647 µM. For the molecule `CC(C)C[C@@H]1NC(=O)[C@H](Cc2c[nH]cn2)NC(=O)[C@@H]2CCCN2C(=O)[C@H](CC(C)C)NC(=O)[C@@H](NC(=O)[C@H](CC(=O)O)NC(=O)CN)CSSC[C@@H]2NC(=O)[C@@H]3CSSC[C@@H](C(=O)N[C@@H](CCCNC(=N)N)C(=O)O)NC(=O)[C@H](CCCNC(=N)N)NC(=O)[C@H](CCCCN)NC(=O)[C@H](CCC(=O)O)NC(=O)[C@H](C)NC(=O)[C@H](CC(N)=O)NC(=O)[C@H]([C@@H](C)O)NC(=O)CNC(=O)[C@H](CCCNC(=N)N)NC(=O)[C@H](CCCNC(=N)N)NC(=O)[C@H](CCCCN)NC(=O)[C@H](CSSC[C@H](NC(=O)[C@H](CCCNC(=N)N)NC(=O)[C@H](CCCCN)NC1=O)C(=O)N[C@@H](CCCCN)C(=O)N[C@@H](C)C(=O)N[C@@H](CC(=O)O)C(=O)N[C@@H](CC(N)=O)C(=O)N[C@@H](CC(=O)O)C(=O)N3)NC(=O)[C@H](C)NC(=O)[C@H](CCCCN)NC(=O)CNC2=O` [K20A] (H-GDCLPHLKRCKADNDCCGKACKRRGTNAEKRCR-OH; disulfide 3-17, 10-21, 16-32), the EC50 was 0.0185 ± 0.00817 µM.
